Reference: paper PMC7707092, “Discovery and characterization of ORM‐11372, a novel inhibitor of the sodium‐calcium exchanger with positive inotropic activity” (British Journal of Pharmacology, 2020)

How the values were obtained:
[1] = biological target: hERG KV11.1 current (I hERG) (Homo sapiens, UniProt Q12809); assay: KV11.1 channel current (I hERG), manual patch‐clamp, CHO cells; assay type: cell-based
Experimental: CHO cells stably expressing either hERG1a (KV11.1) channels (KCNH2; RRID:CVCL_H512) or human 5‐HT2B receptors were cultured at 37°C in a 5% CO2/95% air atmosphere in the Ham's Nutrient Mixture F‐12 (HAM F‐12) medium supplemented with 10% FBS (heat inactivated), 100 μg·ml^−1 of hygromycin B (Invitrogen), and 100 μg·ml^−1 of geneticin or 100 IU·ml^−1 of penicillin and 100 IU·ml^−1 of streptomycin, 25‐mM HEPES, 500 μg·ml^−1 of geneticin, and 250 μg·ml^−1 of Zeocin®. Adhered cells were detached using either Detachin® solution or trypsin and replated twice a week. HEK 293 (RRID:CVCL_0045) and IMR‐32 cells (CCL‐127; RRID:CVCL_0346) were cultured similarly but maintained instead in DMEM, supplemented with 10% FBS (heat inactivated), 100 IU·ml^−1 of penicillin and 100 IU·ml^−1 of streptomycin, and 25‐mM HEPES, and in the case of the IMR‐32 cell line, with minimum essential medium (MEM) non‐essential amino acids. IMR‐32 cells are derived from a human neuroblastoma and endogenously express L‐type (CaV1.x) calcium channel (Sher, Gotti, Pandiella, Madeddu, & Clementi, 1988). […]
Values from hERG‐expressing cells (n = 4) were recorded with the standard extracellular solution at the physiological temperature and a pipette solution containing (in mM) 130 KCl, 7 NaCl, 5 EGTA, 1 MgCl2, 5 Na2ATP, and 5 HEPES (pH was set to 7.2 with KOH; osmolarity was adjusted to 290 ± 3 mOsm). […]

[2] = system: healthy rabbits; assay: Haemodynamics in anaesthetized rabbits; assay type: in vivo, rabbit; set-up: cardiac relaxation / HR / systolic BP: dose or concentration left out as unconfirmed
Experimental: All animals were given multiple ascending infusion doses of ORM‐11372; blinding was not possible. Systemic BP (SP) and left ventricular pressure (LVP) values were measured with pressure transducers (SP for femoral artery: Isotec, Hugo Sachs Elektronic, Germany; a miniature pressure transducer Mikro‐Tip transducer SPR‐249, Millar Instruments was inserted into the left ventricle via the right carotid artery). The signal was amplified (DC‐bridge amplifier type 660, Hugo Sachs Elektronik, Germany), digitized (I/O connector block type SCB‐68, National Instruments, USA), recorded, and analysed (IHME 1.0.9, Fision Ltd, Finland). Left ventricular inotropic effect (LV + dP/dt max), relaxation (LV − dP/dt min), and HR values were analysed from LVP signals.
Male New Zealand white rabbits (Harlan, Netherlands B.V.) were housed individually in polycarbonate cages (Scanbur Number 8 plastic cages with stainless steel door) with aspen bedding (Aspen Bricks M, Tapvei Ky, Kaavi, Finland). The acclimation period before experiments was at least 21 days. Rabbits weighing 2.0–2.3 kg (age 10–12 weeks) were used for haemodynamically assessing ORM‐11372 (no randomization, baseline values as own control). The diet provided to rabbits was SDS Stanrab (P) SQC pelleted (Special Diet Services Ltd, Witham, England). Water was provided ad libitum in polycarbonate bottles (750 ml).
Rabbits (n = 5) were sedated with i.v. (marginal vein) diazepam (2 mg·kg^−1, Diapam®, Orion Pharma). Anaesthesia was induced with i.v. S‐ketamine (10–20 mg·kg^−1 Ketanest‐S®, Pfizer) and maintained with S‐ketamine i.v. infusion (15–80 mg·kg^−1·h^−1). Animals were placed on a heating table (+38°C), and tracheas were cannulated. Rabbits were ventilated via a rodent ventilator (Ugo Basile 7025, Hugo Sachs Elektronik, Germany; respiratory volume 10 ml·kg^−1, 30 strokes·min^−1 for rabbits). […]

[3] = system: human ventricular trabeculae

Sequence of hERG KV11.1 current (I hERG) (Q12809 whole entry): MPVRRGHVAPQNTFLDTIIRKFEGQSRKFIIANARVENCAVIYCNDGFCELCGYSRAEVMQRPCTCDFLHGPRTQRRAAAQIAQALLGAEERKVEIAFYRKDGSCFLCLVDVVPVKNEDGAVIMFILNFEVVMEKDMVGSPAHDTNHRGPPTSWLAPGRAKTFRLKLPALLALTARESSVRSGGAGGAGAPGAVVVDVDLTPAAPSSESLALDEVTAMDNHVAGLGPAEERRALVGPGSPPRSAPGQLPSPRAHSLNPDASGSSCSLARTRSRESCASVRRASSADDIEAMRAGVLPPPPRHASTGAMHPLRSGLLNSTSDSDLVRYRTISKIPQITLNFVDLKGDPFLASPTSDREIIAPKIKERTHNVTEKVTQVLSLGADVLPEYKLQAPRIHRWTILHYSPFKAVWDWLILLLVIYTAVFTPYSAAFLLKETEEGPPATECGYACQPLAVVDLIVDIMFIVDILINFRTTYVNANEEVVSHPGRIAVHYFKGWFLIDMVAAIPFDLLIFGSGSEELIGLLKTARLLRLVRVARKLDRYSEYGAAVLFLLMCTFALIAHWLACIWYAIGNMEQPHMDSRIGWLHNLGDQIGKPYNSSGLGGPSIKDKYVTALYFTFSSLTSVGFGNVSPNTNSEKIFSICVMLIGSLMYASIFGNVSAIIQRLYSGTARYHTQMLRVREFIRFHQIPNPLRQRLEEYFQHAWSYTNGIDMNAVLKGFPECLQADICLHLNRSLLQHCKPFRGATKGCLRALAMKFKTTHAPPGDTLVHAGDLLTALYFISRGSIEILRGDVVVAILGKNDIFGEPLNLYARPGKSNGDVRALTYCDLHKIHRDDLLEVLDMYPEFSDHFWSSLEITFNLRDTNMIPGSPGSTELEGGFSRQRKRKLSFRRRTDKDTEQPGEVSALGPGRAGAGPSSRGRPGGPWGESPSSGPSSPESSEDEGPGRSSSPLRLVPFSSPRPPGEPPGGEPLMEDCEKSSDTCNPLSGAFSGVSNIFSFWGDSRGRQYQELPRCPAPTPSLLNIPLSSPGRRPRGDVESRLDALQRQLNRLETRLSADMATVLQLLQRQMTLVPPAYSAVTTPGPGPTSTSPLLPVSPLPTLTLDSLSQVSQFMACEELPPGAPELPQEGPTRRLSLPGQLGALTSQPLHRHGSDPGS

With Nc1cccc(-c2ccc(CNc3ccc(F)cc3)o2)c1 [ORM‐11372] the “safety margin (ratio), I NCX over Kv11.1 current” value [1] was ≥ 2,000, the IC50 ([1]; manual patch‐clamp, physiological temperature) was 10 µM and the HR [2] was “did not have any effects”. For the same molecule, the cardiac relaxation [2] was “did not have any effects”, the “systolic BP” value [2] was “did not have any effects” and the “increase in cardiac contractility (LV + dP/dt max)” value ([2]; infusion 833 μg·kg^−1·min^−1) was 35 ± 8%. For the same molecule, the “STV and triangulation (pro‐arrhythmia markers)” value ([3]; 1 or 2 Hz, ORM‐11372 any tested concentration, dofetilide 0.1 μM (positive control)) was “no effects” and the “APD30, APD50 and APD90” value ([3]; up to 10 μM, 1‐ and 2‐Hz pacing) was “no significant changes”.
